Test results reported in US20230072860A1, “ISOXAZOLINE OXIME FORMATE COMPOUND, PREPARATION METHOD THEREFOR, HERBICIDAL COMPOSITION AND USE THEREOF” (QINGDAO KINGAGROOT CHEMICAL COMPOUND CO., LTD., priority 2020, published 2023).

Legend:
Experiment in all cases: Experiment on weeding effect in post-emergence stage
Assay type in all cases: in vivo
Settings in all cases: dose 15 g a.i./ha, fresh weight control rate level
Abutilon theophrasti = tested on: Abutilon theophrasti
Description: (§1) Experiment on weeding effect in post-emergence stage:
(§2) Monocotyledonous and dicotyledonous weed seeds (Descurainia sophia, Capsella bursa-pastoris, Abutilon theophrasti, Galium aparine, Stellaria media, Lithospermum arvense, Rorippa indica, Alopecurus aequalis, Alopecurus japonicus, Beckmannia syzigachne, Sclerochloa dura, Conyza Canadensis, Phleum paniculatum, Veronica didyma Tenore, Eleusine indica, Bromus japonicus, Aegilops tauschii, Phalaris arundinacea, Amaranthus retroflexus, Chenopodium album, Commelina communis, Sonchus arvensis, Convolvulus arvensis, Cirsium setosum, Solanum nigrum, Acalypha australis, Digitaria sanguinalis, Echinochloa crusgalli, Setaria viridis, Setaria glauca, Leptochloa chinensis, Monochoria vaginalis, Sagittaria trolia, Scirpus juncoides, Cyperus rotundus, Cyperus iria, Cyperus difformis, Elmbristylis, Portulaca oleracea, Xanthium sibiricum, Pharbitis nil) and major crop seeds (wheat, corn, rice, soybean, cotton, oilseed rape, millet, sorghum, potato, sesame, ricinus) were placed in plastic pots filled with soil, then covered with 0.5-2 cm of soil, allowed to grow in a good greenhouse environment. After 2 weeks of sowing, the test plants were treated in the 2-3 leaf stage. The tested compounds of the present invention were respectively dissolved in acetone, then added with Tween 80 and 1.5 liter/ha of emulsifiable concentrate of methyl oleate as synergist, diluted with a certain amount of water to obtain a solution with a certain concentration, and sprayed with a spray tower onto the plants. After the application, the plants were cultured for 3 weeks in the greenhouse, and then the experimental results of the weeding were counted. The doses of the used compounds were 500, 250, 125, 60, 15 g a.i./ha, and the averages were obtained by repeating for three times.

Amaranthus retroflexus = tested on: Amaranthus retroflexus
Description: as §1, §2

Digitaria sanguinalis = tested on: Digitaria sanguinalis
Description: as §1, §2

Echinochloa crusgalli = tested on: Echinochloa crusgalli
Description: as §1, §2

Eleusine indica = tested on: Eleusine indica
Description: as §1, §2

Galium aparine = tested on: Galium aparine
Description: as §1, §2

Leptochloa chinensis = tested on: Leptochloa chinensis
Description: as §1, §2

Setaria viridis = tested on: Setaria viridis
Description: as §1, §2

Veronica didyma Tenore = tested on: Veronica didyma Tenore
Description: as §1, §2

SMILES | weeding effect in post-emergence stage, Abutilon theophrasti (level) (Abutilon theophrasti) | weeding effect in post-emergence stage, Amaranthus retroflexus (level) (Amaranthus retroflexus) | weeding effect in post-emergence stage, Digitaria sanguinalis (level) (Digitaria sanguinalis) | weeding effect in post-emergence stage, Echinochloa crusgalli (level) (Echinochloa crusgalli) | weeding effect in post-emergence stage, Eleusine indica (level) (Eleusine indica) | weeding effect in post-emergence stage, Galium aparine (level) (Galium aparine) | weeding effect in post-emergence stage, Leptochloa chinensis (level) (Leptochloa chinensis) | weeding effect in post-emergence stage, Setaria viridis (level) (Setaria viridis) | weeding effect in post-emergence stage, Veronica didyma Tenore (level) (Veronica didyma Tenore)
Cn1c(=S)n(C)c(=S)n(-c2cc(C3=NOC(C)(C(=O)ON=C(c4ccccc4)c4ccccc4)C3)c(Cl)cc2F)c1=O (stereo not drawn) [Compound 71] | 5 (Level 5: growth control rate is above 85%) | 5 (Level 5: growth control rate is above 85%) | 5 (Level 5: growth control rate is above 85%) | 5 (Level 5: growth control rate is above 85%) | 5 (Level 5: growth control rate is above 85%) | 5 (Level 5: growth control rate is above 85%) | 5 (Level 5: growth control rate is above 85%) | 5 (Level 5: growth control rate is above 85%) | 5 (Level 5: growth control rate is above 85%)
Cn1c(=S)n(C)c(=S)n(-c2cc(C3=NOC(C)(C(=O)O/N=C/c4ccccc4)C3)c(Cl)cc2F)c1=O (stereo not drawn) [Compound 69] | 5 (Level 5: growth control rate is above 85%) | 5 (Level 5: growth control rate is above 85%) | 5 (Level 5: growth control rate is above 85%) | 5 (Level 5: growth control rate is above 85%) | 5 (Level 5: growth control rate is above 85%) | 5 (Level 5: growth control rate is above 85%) | 5 (Level 5: growth control rate is above 85%) | 5 (Level 5: growth control rate is above 85%) | 5 (Level 5: growth control rate is above 85%)
C/C(=N\OC(=O)C1(C)CC(c2cc(-n3c(=O)n(C)c(=S)n(C)c3=S)c(F)cc2Cl)=NO1)C1CC1 (stereo not drawn) [Compound 61] | 5 (Level 5: growth control rate is above 85%) | 5 (Level 5: growth control rate is above 85%) | 5 (Level 5: growth control rate is above 85%) | 5 (Level 5: growth control rate is above 85%) | 5 (Level 5: growth control rate is above 85%) | 5 (Level 5: growth control rate is above 85%) | 5 (Level 5: growth control rate is above 85%) | 5 (Level 5: growth control rate is above 85%) | 5 (Level 5: growth control rate is above 85%)
CCC(CC)=NOC(=O)C1(C)CC(c2cc(-n3c(=O)n(C)c(=S)n(C)c3=O)c(F)cc2Cl)=NO1 (racemic) [Compound 83] | 5 (Level 5: growth control rate is above 85%) | 5 (Level 5: growth control rate is above 85%) | 5 (Level 5: growth control rate is above 85%) | 5 (Level 5: growth control rate is above 85%) | 5 (Level 5: growth control rate is above 85%) | 5 (Level 5: growth control rate is above 85%) | 5 (Level 5: growth control rate is above 85%) | 5 (Level 5: growth control rate is above 85%) | 5 (Level 5: growth control rate is above 85%)
CCO/C(C)=N/OC(=O)C1(C)CC(c2cc(-n3c(=O)n(C)c(=S)n(C)c3=S)c(F)cc2Cl)=NO1 (stereo not drawn) [Compound 67] | 5 (Level 5: growth control rate is above 85%) | 5 (Level 5: growth control rate is above 85%) | 5 (Level 5: growth control rate is above 85%) | 5 (Level 5: growth control rate is above 85%) | 5 (Level 5: growth control rate is above 85%) | 5 (Level 5: growth control rate is above 85%) | 5 (Level 5: growth control rate is above 85%) | 5 (Level 5: growth control rate is above 85%) | 5 (Level 5: growth control rate is above 85%)
CC(C)=NOC(=O)C1(C)CC(c2cc(-n3c(=O)cc(C(F)(F)F)n(C)c3=S)c(F)cc2Cl)=NO1 (stereo not drawn) [Compound 218] | 5 (Level 5: growth control rate is above 85%) | 5 (Level 5: growth control rate is above 85%) | 5 (Level 5: growth control rate is above 85%) | 5 (Level 5: growth control rate is above 85%) | 5 (Level 5: growth control rate is above 85%) | 5 (Level 5: growth control rate is above 85%) | 5 (Level 5: growth control rate is above 85%) | 5 (Level 5: growth control rate is above 85%) | 5 (Level 5: growth control rate is above 85%)
CC(=NOC(=O)C1(C)CC(c2cc(-n3c(=O)n(C)c(=S)n(C)c3=O)c(F)cc2Cl)=NO1)C(C)(C)C (mixture of isomers) [Compound 81] | 5 (Level 5: growth control rate is above 85%) | 5 (Level 5: growth control rate is above 85%) | 5 (Level 5: growth control rate is above 85%) | 5 (Level 5: growth control rate is above 85%) | 5 (Level 5: growth control rate is above 85%) | 5 (Level 5: growth control rate is above 85%) | 5 (Level 5: growth control rate is above 85%) | 5 (Level 5: growth control rate is above 85%) | 5 (Level 5: growth control rate is above 85%)
